Values after ≈ are worked out from the molar mass of the structure shown. Like-named read-outs stand apart in the source and are kept apart here.
Experiments:
[1] = system: Candida albicans ATCC 10231; assay: microbe, parasite or virus in culture; type: cell-based; details: micro-dilution, YNB medium, 4 × 10^4 cell/mL, 48 h, 30 °C, OD 620 nm, MIC = growth inhibition ≥90%, peptides 25 to 1.56 µM, fluconazole 200 to 0.78 µM, three biological repeats in triplicates; for MIC: Candida albicans, ATCC10231, read-out: Minimal inhibitory concentration, Ca ATCC 10231; as to all read-outs here: key: -: no growth inhibition was observed
Experimental: (§1) The antifungal activity of all the 14 peptides was tested against the following opportunistic human pathogen Candida species and strains: C. albicans strains ATCC 10231, SC 5314 and SZMC 1458, C. auris 0381, C. glabrata CBS 138, C. parapsilosis CBS 604 and C. tropicalis CBS 94.
(§2) All the Candida strains (Table 4) were grown overnight in YPD medium (1% pepton, 1% dextrose, 0.5% yeast extract) at 30 °C in water bath shaker prior to each experiments. The cells were harvested by centrifugation (5 min, 3000× g) washed twice with sterile distilled water and suspended in 5-fold diluted Difco Yeast Nitrogen Base w/o Amino Acids medium (Becton, Dickinson and Company, Sparks, MD, USA) supplemented with 1% dextrose, referred to as YNB medium in the text. Cells were counted in Bürker chamber and diluted to the proper concentration.
(§3) The growth inhibition of the peptides listed in Table 1 was tested in 96-well microtiter plates on Candida strains. The minimal inhibitory concentration (MIC) was determined with the micro-dilution method by adding 5 µL serially two-fold-diluted peptide solution to 95 µL of cell suspension (4 × 10^4 cell/mL) in YNB medium. After 48 h of incubation at 30 °C the optical density of the cultures was measured at 620 nm in SPECTROstar Nano plate reader (BMG LabTech, Offenburg, Germany). Minimal inhibitory concentration was defined as growth inhibition ≥90% compared to 100% growth of the untreated control. The experiments were carried out in three biological repeats always in triplicates.

Candida albicans SC 5314 = assay: microbe, parasite or virus in culture; type: cell-based; details: micro-dilution, YNB medium, 4 × 10^4 cell/mL, 48 h, 30 °C, OD 620 nm, MIC = growth inhibition ≥90%, peptides 25 to 1.56 µM, fluconazole 200 to 0.78 µM, three biological repeats in triplicates; for MIC: Candida albicans, SC5314, read-out: Minimal inhibitory concentration, Ca SC 5314; as to all read-outs here: key: -: no growth inhibition was observed
Experimental: as §1, §2, §3

[2] = system: Candida albicans SZMC 1458; assay: microbe, parasite or virus in culture; type: cell-based; details: micro-dilution, YNB medium, 4 × 10^4 cell/mL, 48 h, 30 °C, OD 620 nm, MIC = growth inhibition ≥90%, peptides 25 to 1.56 µM, fluconazole 200 to 0.78 µM, three biological repeats in triplicates; for MIC: Candida albicans, SZMC1458, read-out: Minimal inhibitory concentration, Ca SZMC 1458; as to all read-outs here: key: -: no growth inhibition was observed
Experimental: as §1, §2, §3

Candida auris 0381 = assay: microbe, parasite or virus in culture; type: cell-based; details: micro-dilution, YNB medium, 4 × 10^4 cell/mL, 48 h, 30 °C, OD 620 nm, MIC = growth inhibition ≥90%, peptides 25 to 1.56 µM, fluconazole 200 to 0.78 µM, three biological repeats in triplicates; for MIC: Candidozyma auris, 0381, read-out: Minimal inhibitory concentration, Cau 0381; as to all read-outs here: key: -: no growth inhibition was observed
Experimental: as §1, §2, §3

Candida glabrata CBS 138 = assay: microbe, parasite or virus in culture; type: cell-based; details: micro-dilution, YNB medium, 4 × 10^4 cell/mL, 48 h, 30 °C, OD 620 nm, MIC = growth inhibition ≥90%, peptides 25 to 1.56 µM, fluconazole 200 to 0.78 µM, three biological repeats in triplicates; for MIC: Nakaseomyces glabratus, CBS138, read-out: Minimal inhibitory concentration, Cg CBS 138; as to all read-outs here: key: -: no growth inhibition was observed
Experimental: as §1, §2, §3

[3] = system: Candida parapsilosis CBS 604; assay: microbe, parasite or virus in culture; type: cell-based; details: micro-dilution, YNB medium, 4 × 10^4 cell/mL, 48 h, 30 °C, OD 620 nm, MIC = growth inhibition ≥90%, peptides 25 to 1.56 µM, fluconazole 200 to 0.78 µM, three biological repeats in triplicates; for MIC: Lodderomyces parapsilosis, CBS604, read-out: Minimal inhibitory concentration, Cp CBS 604; as to all read-outs here: key: -: no growth inhibition was observed
Experimental: as §1, §2, §3

[4] = system: Candida tropicalis CBS 94; assay: microbe, parasite or virus in culture; type: cell-based; details: micro-dilution, YNB medium, 4 × 10^4 cell/mL, 48 h, 30 °C, OD 620 nm, MIC = growth inhibition ≥90%, peptides 25 to 1.56 µM, fluconazole 200 to 0.78 µM, three biological repeats in triplicates; for MIC: Candida tropicalis, CBS94, read-out: Minimal inhibitory concentration, Ct CBS 94; as to all read-outs here: key: -: no growth inhibition was observed
Experimental: as §1, §2, §3

C. auris = details: for FIC: FIC index = FICA + FICB; for FICA / concentration of drug A for the indicated action: checkerboard, 72 h, 30 °C; for FICA: OD 620 nm
Experimental: Amphotericin B, due to its high toxicity was not included in this assay.
The effects of the different combinations of fluconazole and NCR335C17–33, NCR169C17–38 or NCR169C17–38ox were determined by standard checkerboard titration method. The fluconazole was tested in a concentration range from 6.25 to 75 µM, NCR169C17–38 and NCR169C17–38ox from 0.78 to 12.50 µM, NCR335C17–33 from 1.56 to 25 µM. The initial cell concentration in each well was 4 × 10^4 cell/mL. After the incubation for 72 h at 30 °C, the optical density of the cultures was detected at 620 nm in SPECTROstar Nano plate reader (BMG LabTech, Offenburg, Germany). The inhibitory concentrations were determined for each compound alone and in combinations. The experiments were carried out at least three times. The effect of combinations was evaluated by fractional inhibitory concentration (FIC) index. FIC = FICA + FICB. FICA = (MICA in combination)/(MICA alone); FICB = (MICB in combination)/(MICB alone)

[5] = fluconazole + NCR169C17–38, C. auris
[6] = fluconazole + NCR169C17–38ox, C. auris
[7] = C. auris, drug A fluconazole + drug B NCR169C17–38
[8] = C. auris, drug A fluconazole + drug B NCR335C17–33

Question: What does the source list for “HFSLILSD [NCR335C1–8, NCR335C fragment 1–8]”?
Answer: Minimal inhibitory concentration, Ca ATCC 10231 [1]: -; Minimal inhibitory concentration, Ca SC 5314 (Candida albicans SC 5314): -; Minimal inhibitory concentration, Ca SZMC 1458 [2]: -; Minimal inhibitory concentration, Cau 0381 (Candida auris 0381): -; Minimal inhibitory concentration, Cg CBS 138 (Candida glabrata CBS 138): -; Minimal inhibitory concentration, Cp CBS 604 [3]: -; Minimal inhibitory concentration, Ct CBS 94 [4]: -

Question: With “KLRRANVRCRK [NCR335C17–27, NCR335C fragment 17–27]” as the compound, how does the “Minimal inhibitory concentration, Ca ATCC 10231” value [1] read?
Answer: -

Question: What about the “Minimal inhibitory concentration, Ca SC 5314” value (Candida albicans SC 5314) of the same compound?
Answer: -

Question: What about the “Minimal inhibitory concentration, Ca SZMC 1458” value [2] of the same compound?
Answer: -

Question: And the “Minimal inhibitory concentration, Cau 0381” value (Candida auris 0381)?
Answer: -

Question: And the “Minimal inhibitory concentration, Cg CBS 138” value (Candida glabrata CBS 138)?
Answer: -

Question: And the “Minimal inhibitory concentration, Cp CBS 604” value [3]?
Answer: -

Question: And the “Minimal inhibitory concentration, Ct CBS 94” value [4]?
Answer: -

Question: What does the source list for “FWGQNRNIMKHRGQ [NCR335N16–29, NCR335 N-terminal fragment, amino acids 16–29]”?
Answer: Minimal inhibitory concentration, Ca ATCC 10231 [1]: -; Minimal inhibitory concentration, Ca SC 5314 (Candida albicans SC 5314): -; Minimal inhibitory concentration, Ca SZMC 1458 [2]: -; Minimal inhibitory concentration, Cau 0381 (Candida auris 0381): -; Minimal inhibitory concentration, Cg CBS 138 (Candida glabrata CBS 138): -; Minimal inhibitory concentration, Cp CBS 604 [3]: -; Minimal inhibitory concentration, Ct CBS 94 [4]: -

Question: How did the MIC [1] turn out when C[C@@H]1[C@H](O)[C@@H](C)/C=C/C=C/C=C/C=C/C=C/C=C/C=C/[C@H](O[C@@H]2O[C@H](C)[C@@H](O)[C@H](N)[C@@H]2O)C[C@@H]2O[C@](O)(C[C@@H](O)C[C@@H](O)[C@H](O)CC[C@@H](O)C[C@@H](O)CC(=O)O[C@H]1C)C[C@H](O)[C@H]2C(=O)O [Amphotericin B, amphotericin B, reference compound] was run?
Answer: 3.12 µM (≈ 2.88 µg/mL)

Question: What about the MIC (Candida albicans SC 5314) of the same compound?
Answer: 3.12 µM (≈ 2.88 µg/mL)

Question: What about the MIC [2] of the same compound?
Answer: 3.12 µM (≈ 2.88 µg/mL)

Question: What about the MIC (Candida auris 0381) of the same compound?
Answer: 6.25 µM (≈ 5.78 µg/mL)

Question: And the MIC (Candida glabrata CBS 138)?
Answer: 1.56 µM (≈ 1.44 µg/mL)

Question: And the MIC [3]?
Answer: 3.12 µM (≈ 2.88 µg/mL)

Question: What about the MIC [4] of the same compound?
Answer: 6.25 µM (≈ 5.78 µg/mL)

Question: Which results are given for “RLNTTFRPLNFKMLR [NCR335N1–15, NCR335 N-terminal fragment, amino acids 1–15]”?
Answer: Minimal inhibitory concentration, Ca ATCC 10231 [1]: -; Minimal inhibitory concentration, Ca SC 5314 (Candida albicans SC 5314): -; Minimal inhibitory concentration, Ca SZMC 1458 [2]: -; Minimal inhibitory concentration, Cau 0381 (Candida auris 0381): -; Minimal inhibitory concentration, Cg CBS 138 (Candida glabrata CBS 138): -; Minimal inhibitory concentration, Cp CBS 604 [3]: -; Minimal inhibitory concentration, Ct CBS 94 [4]: -

Question: OC(Cn1cncn1)(Cn1cncn1)c1ccc(F)cc1F [Fluconazole, fluconazole, reference compound] was tested. Which FIC (C. auris; [5]) did it give?
Answer: 0.625

Question: And the FIC (C. auris; [6])?
Answer: 0.5

Question: And the FIC (C. auris; fluconazole + NCR335C17–33, C. auris, * fictitious value, could be lower)?
Answer: ≤ 1.125 *

Question: And the FICA (C. auris; [7])?
Answer: 0.5

Question: What about the FICA (C. auris; [8]) of the same compound?
Answer: 1

Question: And the “concentration of drug A for the indicated action” value (C. auris; [7])?
Answer: 12.50 µM

Question: And the “concentration of drug A for the indicated action” value (C. auris; C. auris, drug A fluconazole + drug B NCR169C17–38ox)?
Answer: 6.25 µM

Question: What about the “concentration of drug A for the indicated action” value (C. auris; [8]) of the same compound?
Answer: 25 µM

Question: What about the Action (C. auris; [5]) of the same compound?
Answer: Additive

Question: What about the Action (C. auris; [6]) of the same compound?
Answer: Synergism

Question: And the “reduction of MIC in the synergistic combination” value (C. auris; fluconazole + NCR169C17–38ox, C. auris, compared with single use)?
Answer: 4 ×

Question: And the Action (C. auris; fluconazole + NCR335C17–33, C. auris)?
Answer: Indifferent

Question: What about the MIC [1] of the same compound?
Answer: 200 µM (≈ 61.3 µg/mL)

Question: What about the MIC (Candida albicans SC 5314) of the same compound?
Answer: 12.5 µM (≈ 3.83 µg/mL)

Question: And the MIC [2]?
Answer: 1.56 µM (≈ 0.478 µg/mL)

Question: And the MIC (Candida auris 0381)?
Answer: 25 µM (≈ 7.66 µg/mL)

Question: And the MIC (Candida glabrata CBS 138)?
Answer: 200 µM (≈ 61.3 µg/mL)

Question: And the MIC [3]?
Answer: 6.25 µM (≈ 1.91 µg/mL)

Question: And the MIC [4]?
Answer: 100 µM (≈ 30.6 µg/mL)

Question: “CKTNKDCP [NCR335C9–16, NCR335C fragment 9–16]” was tested. Which “Minimal inhibitory concentration, Ca ATCC 10231” value [1] did it give?
Answer: -

Question: And the “Minimal inhibitory concentration, Ca SC 5314” value (Candida albicans SC 5314)?
Answer: -

Question: And the “Minimal inhibitory concentration, Ca SZMC 1458” value [2]?
Answer: -

Question: And the “Minimal inhibitory concentration, Cau 0381” value (Candida auris 0381)?
Answer: -

Question: What about the “Minimal inhibitory concentration, Cg CBS 138” value (Candida glabrata CBS 138) of the same compound?
Answer: -

Question: What about the “Minimal inhibitory concentration, Cp CBS 604” value [3] of the same compound?
Answer: -

Question: What about the “Minimal inhibitory concentration, Ct CBS 94” value [4] of the same compound?
Answer: -

Question: For “HFSLILSDCKTNKDCP [NCR335C1–16, NCR335C fragment 1–16]”, which “Minimal inhibitory concentration, Ca ATCC 10231” value [1] is on record?
Answer: -

Question: And the “Minimal inhibitory concentration, Ca SC 5314” value (Candida albicans SC 5314)?
Answer: -

Question: And the “Minimal inhibitory concentration, Ca SZMC 1458” value [2]?
Answer: -

Question: And the “Minimal inhibitory concentration, Cau 0381” value (Candida auris 0381)?
Answer: -

Question: And the “Minimal inhibitory concentration, Cg CBS 138” value (Candida glabrata CBS 138)?
Answer: -

Question: What about the “Minimal inhibitory concentration, Cp CBS 604” value [3] of the same compound?
Answer: -

Question: And the “Minimal inhibitory concentration, Ct CBS 94” value [4]?
Answer: -
